# Test system: 935938-334-R-J1-PDC spheroids with HUVEC/MSC, viability
# Assay: Anticancer human tumor 935938-334-R-J1-PDC patient-derived small intestine adenocarcinoma cell line growth inhibition [PI3K]
# Conditions: for IC50: curve of first compound; for viability, T/C: stronger effect = lower value
# How it was run: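 Three cell types, namely tumor cells, endothelial cells and mesenchymal stem cells, formed each spheroid. Combinations with four PI3K inhibitors were screened at clinically achievable concentrations decreasing by half-log, and spheroid viability was recorded.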
# [1] = second compound 0.00316 µM, first compound 0.0316 µM
# [2] = second compound 0.00316 µM, first compound 0.1 µM
# [3] = second compound 0.00316 µM, first compound 0.316 µM
# [4] = second compound 0.00316 µM, first compound 1 µM
# [5] = second compound 0.00316 µM, first compound 3.16 µM
# [6] = second compound 0.00316 µM, first compound 10 µM
# [7] = second compound 0.01 µM, first compound 0.0316 µM
# [8] = second compound 0.01 µM, first compound 0.1 µM
# [9] = second compound 0.01 µM, first compound 0.316 µM
# [10] = second compound 0.01 µM, first compound 1 µM
# [11] = second compound 0.01 µM, first compound 3.16 µM
# [12] = second compound 0.01 µM, first compound 10 µM
# [13] = second compound 0.0316 µM, first compound 0.0316 µM
# [14] = second compound 0.0316 µM, first compound 0.1 µM
# [15] = second compound 0.0316 µM, first compound 0.316 µM
# [16] = second compound 0.0316 µM, first compound 1 µM
# [17] = second compound 0.0316 µM, first compound 3.16 µM
# [18] = second compound 0.0316 µM, first compound 10 µM
# [19] = second compound 0.1 µM, first compound 0.0316 µM
# [20] = second compound 0.1 µM, first compound 0.1 µM
# [21] = second compound 0.1 µM, first compound 0.316 µM
# [22] = second compound 0.1 µM, first compound 1 µM
# [23] = second compound 0.1 µM, first compound 3.16 µM
# [24] = second compound 0.1 µM, first compound 10 µM
# [25] = second compound 0.316 µM, first compound 0.0316 µM
# [26] = second compound 0.316 µM, first compound 0.1 µM
# [27] = second compound 0.316 µM, first compound 0.316 µM
# [28] = second compound 0.316 µM, first compound 1 µM
# [29] = second compound 0.316 µM, first compound 3.16 µM
# [30] = second compound 0.316 µM, first compound 10 µM
# [31] = second compound 1 µM, first compound 0.0316 µM
# [32] = second compound 1 µM, first compound 0.1 µM
# [33] = second compound 1 µM, first compound 0.316 µM
# [34] = second compound 1 µM, first compound 1 µM
# [35] = second compound 1 µM, first compound 3.16 µM
# [36] = second compound 1 µM, first compound 10 µM
# 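Also: compound exposure lasted seven days before viability was read.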
# 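For viability, T/C in this document: percent of vehicle DMSO treated spheroid viability so 100% = untreated.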
compound,measurement,setting,value
CC1(C)CCC(CN2CCN(c3ccc(C(=O)NS(=O)(=O)c4ccc(NCC5CCOCC5)c([N+](=O)[O-])c4)c(Oc4cnc5[nH]ccc5c4)c3)CC2)=C(c2ccc(Cl)cc2)C1 + COc1c(OCCCN2CCOCC2)ccc2c3n(c(=NC(=O)c4cnc(N)nc4)nc12)CCN3,IC50,second compound 0.00316 µM,> 10000 nM
same,IC50,second compound 0.01 µM,> 10000 nM
same,IC50,second compound 0.0316 µM,> 10000 nM
same,IC50,second compound 0.1 µM,10000 nM
same,IC50,second compound 0.316 µM,< 31.6 nM
same,IC50,second compound 1 µM,< 31.6 nM
same,"viability, T/C",[1],98.6%
same,"viability, T/C",[2],99.3%
same,"viability, T/C",[3],92.7%
same,"viability, T/C",[4],110%
same,"viability, T/C",[5],84.8%
same,"viability, T/C",[6],93.1%
same,"viability, T/C",[7],108%
same,"viability, T/C",[8],85.6%
same,"viability, T/C",[9],83.7%
same,"viability, T/C",[10],66.8%
same,"viability, T/C",[11],82.4%
same,"viability, T/C",[12],84.8%
same,"viability, T/C",[13],67.7%
same,"viability, T/C",[14],68.6%
same,"viability, T/C",[15],71.1%
same,"viability, T/C",[16],68.5%
same,"viability, T/C",[17],69.5%
same,"viability, T/C",[18],74%
same,"viability, T/C",[19],66.5%
same,"viability, T/C",[20],44.7%
same,"viability, T/C",[21],56.8%
same,"viability, T/C",[22],52.2%
same,"viability, T/C",[23],52.5%
same,"viability, T/C",[24],47.3%
same,"viability, T/C",[25],27.1%
same,"viability, T/C",[26],36.2%
same,"viability, T/C",[27],30%
same,"viability, T/C",[28],33.2%
same,"viability, T/C",[29],33.6%
same,"viability, T/C",[30],40.1%
same,"viability, T/C",[31],34.6%
same,"viability, T/C",[32],39.5%
same,"viability, T/C",[33],38.9%
same,"viability, T/C",[34],29.3%
same,"viability, T/C",[35],34.9%
same,"viability, T/C",[36],32.6%
C[C@@H](NC(=O)c1ncnc(N)c1Cl)c1ncc(C(=O)Nc2cc(C(F)(F)F)c(Cl)cn2)s1 + COc1c(OCCCN2CCOCC2)ccc2c3n(c(=NC(=O)c4cnc(N)nc4)nc12)CCN3,IC50,second compound 0.00316 µM,> 10000 nM
same,IC50,second compound 0.01 µM,> 10000 nM
same,IC50,second compound 0.0316 µM,> 10000 nM
same,IC50,second compound 0.1 µM,6990 nM
same,IC50,second compound 0.316 µM,< 31.6 nM
same,IC50,second compound 1 µM,< 31.6 nM
same,"viability, T/C",[1],124%
same,"viability, T/C",[2],105%
same,"viability, T/C",[3],116%
same,"viability, T/C",[4],108%
same,"viability, T/C",[5],123%
same,"viability, T/C",[6],82.3%
same,"viability, T/C",[7],104%
same,"viability, T/C",[8],122%
same,"viability, T/C",[9],115%
same,"viability, T/C",[10],117%
same,"viability, T/C",[11],101%
same,"viability, T/C",[12],90%
same,"viability, T/C",[13],81.3%
same,"viability, T/C",[14],94.4%
same,"viability, T/C",[15],96.2%
same,"viability, T/C",[16],85.4%
same,"viability, T/C",[17],76.3%
same,"viability, T/C",[18],69.9%
same,"viability, T/C",[19],67.5%
same,"viability, T/C",[20],65.7%
same,"viability, T/C",[21],73.2%
same,"viability, T/C",[22],71.2%
same,"viability, T/C",[23],60.8%
same,"viability, T/C",[24],44.5%
same,"viability, T/C",[25],46.3%
same,"viability, T/C",[26],42.1%
same,"viability, T/C",[27],38.9%
same,"viability, T/C",[28],41.8%
same,"viability, T/C",[29],40.1%
same,"viability, T/C",[30],42.9%
same,"viability, T/C",[31],36.8%
same,"viability, T/C",[32],41.3%
same,"viability, T/C",[33],40.8%
same,"viability, T/C",[34],37.3%
same,"viability, T/C",[35],37.5%
same,"viability, T/C",[36],34.7%
Cn1ncnc1[C@H]1c2n[nH]c(=O)c3cc(F)cc(c23)N[C@@H]1c1ccc(F)cc1 + COc1c(OCCCN2CCOCC2)ccc2c3n(c(=NC(=O)c4cnc(N)nc4)nc12)CCN3,IC50,second compound 0.00316 µM,> 100 nM
same,IC50,second compound 0.01 µM,> 100 nM
same,IC50,second compound 0.0316 µM,> 100 nM
same,IC50,second compound 0.1 µM,8.29 nM
same,IC50,second compound 0.316 µM,< 0.316 nM
same,IC50,second compound 1 µM,< 0.316 nM
same,"viability, T/C","second compound 0.00316 µM, first compound 0.000316 µM",90.8%
same,"viability, T/C","second compound 0.00316 µM, first compound 0.001 µM",96.6%
same,"viability, T/C","second compound 0.00316 µM, first compound 0.00316 µM",103%
same,"viability, T/C","second compound 0.00316 µM, first compound 0.01 µM",83.3%
same,"viability, T/C",[1],96.2%
same,"viability, T/C",[2],92.8%
same,"viability, T/C","second compound 0.01 µM, first compound 0.000316 µM",109%
same,"viability, T/C","second compound 0.01 µM, first compound 0.001 µM",106%
same,"viability, T/C","second compound 0.01 µM, first compound 0.00316 µM",92.3%
same,"viability, T/C","second compound 0.01 µM, first compound 0.01 µM",82.2%
same,"viability, T/C",[7],92.4%
same,"viability, T/C",[8],77.4%
same,"viability, T/C","second compound 0.0316 µM, first compound 0.000316 µM",77%
same,"viability, T/C","second compound 0.0316 µM, first compound 0.001 µM",65.6%
same,"viability, T/C","second compound 0.0316 µM, first compound 0.00316 µM",90.2%
same,"viability, T/C","second compound 0.0316 µM, first compound 0.01 µM",82.2%
same,"viability, T/C",[13],73.8%
same,"viability, T/C",[14],76%
same,"viability, T/C","second compound 0.1 µM, first compound 0.000316 µM",56%
same,"viability, T/C","second compound 0.1 µM, first compound 0.001 µM",52%
same,"viability, T/C","second compound 0.1 µM, first compound 0.00316 µM",57.5%
same,"viability, T/C","second compound 0.1 µM, first compound 0.01 µM",47.2%
same,"viability, T/C",[19],43.5%
same,"viability, T/C",[20],50.2%
same,"viability, T/C","second compound 0.316 µM, first compound 0.000316 µM",31.2%
same,"viability, T/C","second compound 0.316 µM, first compound 0.001 µM",35.3%
same,"viability, T/C","second compound 0.316 µM, first compound 0.00316 µM",34.5%
same,"viability, T/C","second compound 0.316 µM, first compound 0.01 µM",34.6%
same,"viability, T/C",[25],34.2%
same,"viability, T/C",[26],35.4%
same,"viability, T/C","second compound 1 µM, first compound 0.000316 µM",33.1%
same,"viability, T/C","second compound 1 µM, first compound 0.001 µM",40.3%
same,"viability, T/C","second compound 1 µM, first compound 0.00316 µM",37.5%
same,"viability, T/C","second compound 1 µM, first compound 0.01 µM",32.7%
same,"viability, T/C",[31],36%
same,"viability, T/C",[32],35.1%
